Data set [1] can be described thus: Example 3: co-administration of paroxetine and the subject combination in healthy volunteers. The text has this:
Co-administration of the SSRI paroxetine and the subject combination was studied in 29 healthy volunteers.

The conditions of data set [2]: human, in vivo.
The conditions of data set [3]: human, in vivo. This is another data set of the same source.
The nature of data set [4]: Steady-state pharmacokinetics of dextromethorphan, bupropion and metabolites after administration of the subject combination. The settings on record: for changes in AUC and Cmax with dose (dose proportionality): steady state, co-administered with bupropion.
Data set [5] can be described thus: Example 2: pharmacokinetics of the subject combination in CYP2D6 poor metabolizers. The settings on record: 3 CYP2D6 poor metabolizers. The text has this:
Approximately 7 to 10% of Caucasians and 3 to 8% of African Americans lack the capacity to metabolize CYP2D6 substrates and are classified as poor metabolizers.

Data set [6] in a line: Example 4: exposure to the 45 mg dextromethorphan hydrobromide/105 mg bupropion hydrochloride tablet in moderate renal impairment (FIG. 1). As to conditions: 8 days of twice daily dosing of the tablet.
Data set [7] in a line: Example 1: subject combination in subjects with moderate renal impairment vs matched controls. As to conditions: moderate renal impairment (GFR 30-60 mL/min).

The structures appear in SMILES notation. Where a name gives a salt, the structure may show the parent alone. Read-outs that look alike come from different tables or passages of the source.

For `Fc1ccc([C@@H]2CCNC[C@H]2COc2ccc3c(c2)OCO3)cc1` [paroxetine], the “increase of overall exposure of paroxetine when co-administered with the subject combination” value in data set [1] (human, in vivo) was 1.2 fold.

In the case of `CC(NC(C)(C)C)C(=O)c1cccc(Cl)c1.Cl` (racemic) [bupropion, (±)-1-(3-chlorophenyl)-2-[(1,1-dimethylethyl)amino]-1-propanone hydrochloride], in data set [2], the “increase of exposure vs matched controls with normal renal function” value was “approximately 2 fold” and the “reduction of clearance vs matched controls with normal renal function” value came out at 50%. Besides, in data set [3], the “increase in AUC0-12 (GMR vs matched healthy subjects)” value is 1.80 fold and the “increase in Cmax (GMR vs matched healthy subjects)” value is 1.87 fold.

For `COc1ccc2c(c1)[C@]13CCCC[C@@H]1[C@H](C2)N(C)CC3` [dextromethorphan, morphinan, 3-methoxy-17-methyl-, (9α, 13α, 14α), hydrobromide monohydrate], the “increase of mean elimination half-life compared to dextromethorphan given without bupropion” value in data set [4] (8 days of administration of the subject combination, extensive metabolizers) is on record as “approximately 3 fold”. Besides, in data set [4] (varying doses of bupropion (75 to 150 mg)), the “changes in AUC and Cmax with dose (dose proportionality)” value is given as “less than dose-proportional”. Besides, the “changes in AUC and Cmax with dose (dose proportionality)” value in data set [4] (varying doses of dextromethorphan (30 to 60 mg)) is recorded as “greater than dose-proportional”. Further, the mean elimination half-life in data set [4] (subject combination) worked out at 22 h. Also, in data set [5], the “increase in AUC0-12 compared to extensive metabolizers” value is given as approximately 3.4 fold and the “increase in Cmax compared to extensive metabolizers” value is listed as approximately 3 fold. In data set [1] (29 healthy volunteers, paroxetine with the subject combination), the “change of overall exposure on co-administration of paroxetine” value amounted to 2.5 fold. In data set [6], the “increase in AUC0-12 (GMR vs matched healthy subjects)” value is recorded as 2.21 fold and the “increase in Cmax (GMR vs matched healthy subjects)” value is 2.10 fold. Besides, the “reduction of clearance vs matched controls with normal renal function” value in data set [7] was found to be 50%. Further, the “increase of exposure vs matched controls with normal renal function” value in data set [7] (7 subjects vs 6 controls) is given as “approximately 2 fold”.

These data come from patent publication US12364674B2, “Compounds and combinations thereof for treating neurological and psychiatric conditions” (priority 2022, dated 2025).
